US20240245051A1, “DISINFECTING, ANTIMICROBIAL AND PRESERVATIVE COMPOSITION” (BJBIOCHEM CO., LTD., priority 2021, published 2024)

Columns and labels:
Assay in all cases: Antimicrobial test, broth dilution method (MIC)
Format in all cases: cell-based
Conditions in all cases: single compounds of Comparative Examples
A. niger = test system: A. niger
Protocol: (§1) The antimicrobial activity of the test solution was measured using a broth dilution method. The concentration of the test solution that was treated was diluted from the highest concentration of 5% to the lowest concentration of 0.0001%. The test solution was cultured in the presence of the strain and then the turbidity of the tube was determined. […] After the primary test described as above, the concentration of the test solution that was treated was further subdivided and a secondary test was conducted to obtain an accurate minimum inhibitory concentration (MIC).
(§2) Test strains E. coli, S. aureus, and P. aeruginosa were inoculated into tryptic soy broth and incubated at 35±2° C. for 16 to 24 hours. C. albicans was inoculated into Sabouraud dextrose broth and cultured at 35° C. for 24 hours. A. niger was seeded on potato dextrose agar and cultured at (25±1°) C for 7 days, sterile physiological saline was dispensed into a solid medium on which the bacteria grew, and spores were removed using a spreader and then diluted in sterile physiological saline.
(§3) A liquid medium was put into the tube and the concentration of the test solution that was treated was diluted from the highest concentration of 5% to the lowest concentration of 0.0001%. The liquid media used for E. coli, S. aureus, and P. aeruginosa (bacteria) were tryptic soy broth, and the liquid media used for C. albicans, and A. niger (fungi) were Sabouraud dextrose broth.
(§4) E. coli, S. aureus, and P. aeruginosa of the strains were inoculated at a concentration of 1×10^5 CFU/mL in the test tube. The tubes treated with the test solution were incubated at 35±2° C. for 16 to 24 hours. C. albicans and A. niger were inoculated at a concentration of 1×10^4 CFU/mL in the test tube. After treatment with the test solution was completed, C. albicans was cultured at 35° C. for 24 to 48 hours and A. niger was cultured at 25° C. for 46 to 50 hours. A medium tube, to which the bacterial solution was not added, was used as a negative control, and a tube containing the medium inoculated with only the bacterial solution without the test solution was used as a growth control. In addition, in order to determine the antimicrobial activity of dipropylene glycol itself used as a solvent, the MIC of the test bacteria for the solvent was measured under the same conditions as in the sample.

C. albicans = test system: C. albicans
Protocol: as §1, §2, §3, §4

E. coli = test system: E. coli
Protocol: as §1, §2, §3, §4

P. aeruginosa = test system: P. aeruginosa
Protocol: as §1, §2, §3, §4

S. aureus = test system: S. aureus
Protocol: as §1, §2, §3, §4

Row | minimum inhibitory concentration (MIC), A. niger (A. niger) [%] | minimum inhibitory concentration (MIC), C. albicans (C. albicans) [%] | minimum inhibitory concentration (MIC), E. coli (E. coli) [%] | minimum inhibitory concentration (MIC), P. Aeruginosa (P. aeruginosa) [%] | minimum inhibitory concentration (MIC), S. Aureus (S. aureus) [%] | Compound
1 | 0.32 | 0.64 | 0.2 | 0.5 | 0.5 | CCCCCCOCC(O)CO (centres unmarked) [Comparative Example 5, Hexyl glycerin]
2 | 0.02 | 0.03 | 0.06 | 0.12 | 0.06 | CCCCCCCC(=O)NO [Comparative Example 17, Caprylhydroxamic acid]
3 | 0.5 | 0.5 | 0.3 | 2 | 0.15 | CCCCC(CC)COCC(O)CO (centres unmarked) [Comparative Example 7, Ethylhexylglycerin]
4 | 0.005 | 0.005 | 0.02 | 0.4 | 0.02 | COc1ccccc1/C=C/C=O [Comparative Example 10, 2-methoxycinnamaldehyde]
5 | 0.15 | 0.1 | 0.02 | 0.1 | 0.02 | CC(=O)CCC(=O)O [Comparative Example 20, Levulinic acid]
6 | 0.3 | 0.2 | 0.05 | 0.2 | 0.05 | Cc1cc(CC(C)CC(C)(C)C)n(O)c(=O)c1 (centres unmarked) [Comparative Example 18, Piroctone olamine]
7 | 0.5 | 1 | 0.5 | 0.1 | 0.1 | CC(=O)CCc1ccc(O)cc1 [Comparative Example 11, Raspberry ketone]
8 | 0.1 | 0.1 | 0.05 | 0.05 | 0.01 | COc1ccc(C(=O)O)cc1 [Comparative Example 22, Sodium anisate]
9 | 0.09 | 0.01 | 0.01 | 0.03 | 0.01 | CCCCCCCCCCCCNCC(O)CO (centres unmarked) [Comparative Example 1, (3-dodecylamino)propane-1,2-diol]
10 | 0.5 | 0.1 | 0.15 | 0.1 | 0.2 | CC(=O)c1ccc(O)cc1 [Comparative Example 13, 4-hydroxy acetophenone]
11 | 0.5 | 0.25 | 0.5 | 0.5 | 0.5 | CCCCCCCCOCC(O)CO (centres unmarked) [Comparative Example 6, Octyl glycerin]
12 | 0.03 | 0.03 | 0.4 | 0.2 | 0.4 | OCCCc1ccccc1 [Comparative Example 12, 3-phenyl-1-propanol]
13 | 0.5 | 2 | 1 | 1 | 2 | CCCCC(O)CO (centres unmarked) [Comparative Example 2, Hexane-1,2-diol]
14 | 0.003 | 0.001 | 0.003 | 0.003 | 0.003 | CCCCCCCCCCCC(=O)NC(CCCN=C(N)N)C(=O)OCC (centres unmarked) [Comparative Example 19, Lauroyl arginine ethyl ester]
15 | 0.006 | 0.011 | 0.09 | 0.045 | 0.025 | CCCCCCCCC(O)CO (centres unmarked) [Comparative Example 4, Decane-1,2-diol]
16 | 0.3 | 0.5 | 0.25 | 0.5 | 0.5 | CCCCCCC(O)CO (centres unmarked) [Comparative Example 3, Octane-1,2-diol]

Row | Compound | minimum inhibitory concentration (MIC), A. niger (A. niger) [%] | minimum inhibitory concentration (MIC), C. albicans (C. albicans) [%] | minimum inhibitory concentration (MIC), E. coli (E. coli) [%] | minimum inhibitory concentration (MIC), P. Aeruginosa (P. aeruginosa) [%] | minimum inhibitory concentration (MIC), S. Aureus (S. aureus) [%]
17 | O=C/C=C/c1ccccc1 [Comparative Example 9, Cinnamaldehyde] | 0.03 | 0.02 | 0.05 | 0.1 | 0.03
18 | Disodium EDTA [Comparative Example 23] | 0.15 | 0.05 | 0.1 | 0.15 | 0.1
19 | Citric acid [Comparative Example 21] | 0.2 | 0.05 | 0.1 | 0.1 | 0.1
20 | O=C([O-])CN(CCN(CC(=O)[O-])CC(=O)[O-])CC(=O)[O-].[Na+].[Na+].[Na+].[Na+] [Comparative Example 24, Tetrasodium EDTA] | 0.15 | 0.05 | 0.1 | 0.15 | 0.1
21 | O=C([O-])c1ccccc1.[Na+] [Comparative Example 14, Sodium benzoate] | 0.1 | 0.12 | 0.016 | 0.016 | 0.002
22 | OCCOc1ccccc1 [Comparative Example 15, Phenoxy EtOH] | 0.12 | 0.12 | 0.06 | 0.09 | 0.06
